Test results from patent publication US5322928A, “Diapause hormone isolated from silkworm exhibiting improved diapause activity” (Shionogi Seiyaku Kabushiki Kaisha, priority 1991, dated 1994).
Where no end group is shown, it is not given here.

Tested on: silkworm non-diapause strain (N4 line) pupa
Experiment: Assay of bioactivity: specimen injected into 4 days-age pupa of non-diapause strain, percentage of laid eggs that diapause
Format: in vivo, silkworm (Bombyx mori)
Settings: qualitative
Description: The hormonal activity was confirmed by the following method: the specimen is injected into the 4 days-age pupa of non-diapause strain. After the pupa transforms into a imago, copulates, and lays eggs, it is investigated whether or not the eggs diapause without embryogenesis. […] In case that the specimen has the hormonal activity, the color of the eggs becomes blackish-brown which is not observed in non-diapausing eggs. […] The hormonal activity is determined by calculating what percentage of the eggs laid by one imago diapauses. One diapause hormone unit is the amount of the hormone which make 50% of the laid eggs diapause. In this invention, the isolated diapause hormone was 0.1 ng/unit.

TDMKDESDRGAHSERGALCFGPRL-NH2 [amino acid 19 is Cys]
diapause hormone activity (hormonal activity in bioassay): have diapause activity

TDMKDESDRGAHSERGALWFGPRL-NH2 [amino acid 19 is Trp]
diapause hormone activity (hormonal activity in bioassay): have diapause activity
